Tests used:
Assay type in all cases: functional, cell-based
MCF7 = assay: Compound was evaluated for cytotoxicity against MCF-7 breast cancer cells ([…] cells); details: Homo sapiens
[1] = Compound was evaluated for cytotoxicity against LAPC4 prostate cancer cells (AR dependent cells); details: Homo sapiens
LNCaP [2] = assay: Compound was evaluated for cytotoxicity against LNCaP prostate cancer cells; details: Homo sapiens
[3] = Compound was evaluated for cytotoxicity against MDA-468 breast cancer cells ([…] cells); details: Homo sapiens, MDA-MB-468
LNCaP [4] = assay: Compound was evaluated for cytotoxicity against LNCaP prostate cancer cells (AR dependent cells); details: Homo sapiens
PC-3 = assay: Compound was evaluated for cytotoxicity against PC3 prostate cancer cells ([…] cells); details: Homo sapiens
COLO 205 = assay: Compound was evaluated for cytotoxicity against COLO 205 colon cancer cells ([…] cells); details: Homo sapiens

COC1=C2C[C@H](C)C[C@H](OC)[C@@H](O)[C@H](C)/C=C(\C)C[C@H](OC(N)=O)[C@@H](OC)/C=C\C=C(/C)C(=O)NC(=CC1=O)C2=O
IC50 (MCF7): 30 nM
IC50 [1]: 25 nM
IC50 (LNCaP [2]): 40 nM
IC50 [3]: 20 nM
IC50 (LNCaP [4]): 40 nM
IC50 (PC-3): 30 nM
IC50 (COLO 205): 20 nM

CO[C@H]1/C=C\C=C(/C)C(=O)NC2=CC(=O)C(NCCCC/C=C\[C@]3(O)CC[C@@]4(C)C5CC=C6CC7(CC[C@]6(C)[C@@]5(C)CC[C@@]43C)OCCO7)=C(C[C@H](C)C[C@H](OC)[C@@H](O)[C@H](C)/C=C(\C)C[C@@H]1OC(N)=O)C2=O (stereo partly specified)
IC50 (LNCaP [2]): > 1000 nM

CO[C@H]1/C=C\C=C(/C)C(=O)NC2=CC(=O)C(NCCCCC#C[C@]3(O)CC[C@@]4(C)C5CCC6=CC(=O)CC[C@]6(C)[C@@]5(C)CC[C@@]43C)=C(C[C@H](C)C[C@H](OC)[C@@H](O)[C@H](C)/C=C(\C)C[C@@H]1OC(N)=O)C2=O (stereo partly specified)
IC50 (MCF7): 300 nM
IC50 [1]: 40 nM
IC50 (LNCaP [2]): 100 nM
IC50 [3]: 240 nM
IC50 (LNCaP [4]): 100 nM
IC50 (PC-3): 300 nM
IC50 (COLO 205): 200 nM

CO[C@H]1/C=C\C=C(/C)C(=O)NC2=CC(=O)C(NCCCCCCC#C[C@]3(O)CC[C@@]4(C)C5CCC6=CC(=O)CC[C@]6(C)[C@@]5(C)CC[C@@]43C)=C(C[C@H](C)C[C@H](OC)[C@@H](O)[C@H](C)/C=C(\C)C[C@@H]1OC(N)=O)C2=O (stereo partly specified)
IC50 (LNCaP [2]): > 1000 nM

CO[C@H]1/C=C\C=C(/C)C(=O)NC2=CC(=O)C(NCCCC#C[C@]3(O)CC[C@@]4(C)C5CCC6=CC(=O)CC[C@]6(C)[C@@]5(C)CC[C@@]43C)=C(C[C@H](C)C[C@H](OC)[C@@H](O)[C@H](C)/C=C(\C)C[C@@H]1OC(N)=O)C2=O (stereo partly specified)
IC50 (LNCaP [2]): 200 nM

CO[C@H]1/C=C\C=C(/C)C(=O)NC2=CC(=O)C(NCCC#C[C@]3(O)CC[C@@]4(C)C5CCC6=CC(=O)CC[C@]6(C)[C@@]5(C)CC[C@@]43C)=C(C[C@H](C)C[C@H](OC)[C@@H](O)[C@H](C)/C=C(\C)C[C@@H]1OC(N)=O)C2=O (stereo partly specified)
IC50 (LNCaP [2]): > 1000 nM

CO[C@H]1/C=C\C=C(/C)C(=O)NC2=CC(=O)C(NCCCC/C=C/[C@]3(O)CC[C@@]4(C)C5CC=C6CC7(CC[C@]6(C)[C@@]5(C)CC[C@@]43C)OCCO7)=C(C[C@H](C)C[C@H](OC)[C@@H](O)[C@H](C)/C=C(\C)C[C@@H]1OC(N)=O)C2=O (stereo partly specified)
IC50 (LNCaP [2]): > 1000 nM

CO[C@H]1/C=C\C=C(/C)C(=O)NC2=CC(=O)C(NCCCCCC[C@]3(O)CC[C@@]4(C)C5CC=C6CC7(CC[C@]6(C)[C@@]5(C)CC[C@]34C)OCCO7)=C(C[C@H](C)C[C@H](OC)[C@@H](O)[C@H](C)/C=C(\C)C[C@@H]1OC(N)=O)C2=O (stereo partly specified)
IC50 (LNCaP [2]): > 1000 nM

CO[C@H]1/C=C\C=C(/C)C(=O)NC2=CC(=O)C(NCCCCCC#C[C@]3(O)CC[C@@]4(C)C5CCC6=CC(=O)CC[C@]6(C)[C@@]5(C)CC[C@@]43C)=C(C[C@H](C)C[C@H](OC)[C@@H](O)[C@H](C)/C=C(\C)C[C@@H]1OC(N)=O)C2=O (stereo partly specified)
IC50 (LNCaP [2]): > 1000 nM
